Results reported in patent US11779597B2, “Method of treating Parkinson's and other neurodegenerative diseases” (Vector Vitale IP LLC, priority 2019, dated 2023).

Legend:
[1] = system: circulating phagocytes (monocytes and neutrophils); test: Hemogram and functional profile of circulating phagocytes in 6-OHDA rat models after prophylactic administration; type: in vivo; conditions: prophylactic i.p.
Description: Methods: Adult mature rodents were used in the study. […] Before prophylactic administration of the experimental drugs, the animals underwent an open field test to assay their general locomotor activity levels and anxiety. The prophylactic course consisted of 10 daily intraperitoneal injections of the drugs (in the case of combination drug, its components were administered at an interval of 2 hours). After the end of prophylactic course, Parkinson's disease was modelled in the animals. […] Ten days after the last (second) apomorphine test, the animals' behavioral responses were assessed in the open field test followed by euthanasia and analysis of functional (metabolic and phenotypic) profiles of phagocytes of different localization. Thus, the study of the functional profile of phagocytes in rat models of Parkinson's disease was performed on day 28 after the end of the course of prophylactic treatment with the experimental drugs. […] Functional characteristics of circulating phagocytes (monocytes and neutrophils) were evaluated in whole blood taken into a tube containing EDTA used as an anticoagulant. Mononuclear and polymorphonuclear phagocytes were analyzed on a flow cytofluorimeter using a gating method. […] The hemogram parameters were analyzed on the hematological analyzer Particle counter model PCE 210 (ERMA, Japan) adapted for the study of blood cells of rats and mice.

rat microglial cells = test: Metabolic profile of nonsensitized rat microglial cells in vitro; type: cell-based
Description: Materials and methods: Rat microglial cells were isolated by mechanical (cell sieves) disintegration of the brain tissue (FIG. 30A, FIG. 30B and FIG. 30C) followed by fractionation of the tissue homogenate in Percoll density gradient (Microglia: Methods and Protocols, Edited by Bertrand Josef and Jose Luis Venero, Springer protocol. Humana Press, 2013, 350 p.) (FIG. 31). Before the collection of the brain tissue, decapitation was performed to avoid hemorrhage to the brain during sampling (FIG. 32). Decapitation was performed immediately after anesthesia to minimize the death of brain tissue, including microglial cells. All manipulations for the isolation of microglial cells were carried out using coolants. Circulating neutrophils were isolated from venous blood taken into a tube containing EDTA in a two-step Percoll gradient (Alsharif K F et al. Vascul Pharmacol. 2015 August; 71:201-7. doi: 10.1016/j.vph.2015.02.006)(FIG. 33A and FIG. 33B). Circulating monocytes were isolated from venous blood collected into a tube containing heparin in a two-step Hypaque gradient (Macrophages and dendritic cells: Methods and Protocols, Edited by Neil E. Reiner, NY, Humana Press, 2009: 368 P). The metabolic profile of phagocytes was characterized based on the pathway of arginine metabolism (levels of arginase activity and NO synthesis measured using photocolorimetric methods), the level of formation of intracellular reactive oxygen species (ROS) by esterases and the indices of phagocytic activity determined by flow cytofluorimetry, as well as according to the activation levels of NADH and NADPH oxidases determined in NBT test. Duration of treatment of phagocytes of all the above mentioned populations varied depending on the methodological characteristics of metabolic response. A 90 minute exposure to the drugs according to Kim et al., 1977 (cited above) was used to analyze their effects on oxidative metabolism and phagocytic activity. An 18 hour exposure according to Lastra et al., 2001 (cited above) was used to analyze the drug effects on arginine metabolic pathway. To analyze the effects of the drugs under study on the induced (stimulated) metabolic activity of phagocytes, the cells were treated with lipopolysaccharide (LPS) from E. coli (Sigma, USA) according to Haddad et al., 2009 (cited above).

Water content of feces = type: in vivo; conditions: LPS rat models; administration during 10 days
Description: Feces were collected on the 8th, 21st and 28th days of the experiment. They were weighed (wet weight mww) and dried in a thermostat at t=60° C. for 24 hours and then weighed again (dry weight mdw). The water content of feces (M) was calculated as the percentage difference between wet and dry weight of feces according to the following formula: M=100−(mdw×100%/mww).
(§1) On the 1st day of the experiment, rats were either operated to model hemi-parkinsonism or sham operated. From the 9th to the 18th day of the experiment, the animals were injected either deuterium-depleted water or the test substance, according to their allocation into groups, for 10 days. On the 8th day of the experiment (before initiation of treatment—apomorphine test I) and on the 21st day of the experiment (after the end of administering the test substance —apomorphine test II) the animals underwent an apomorphine test to analyze the development of hemi-parkinsonism which correlates with the number of destroyed dopaminergic neurons. In addition, a follow-up analysis of fecal water content was carried out, i.e., before the start of treatment on the 8th day after the operation, as well as on the 21st (after the end of treatment) and the 28th day (before autopsy). On the 24th day of the experiment, behavioral tests were carried out in all groups. All animals were weighed before autopsy. […]

[2] = system: neuronal nitric oxide synthase; test: Neuronal nitric oxide synthase expression in astrocytes in LPS rat models; type: in vivo; conditions: sham operation and LPS-induced PD; 1.5 mg/kg
Description: as §1

[3] = regardless of the concentration, in vitro

^64Zn-enriched zinc aspartate [^64Zne-asp]
oxidative metabolism in circulating neutrophils [1]: absence of any disturbances
phagocytic activity of circulating monocytes [1]: did not differ from that of intact animals
arginase activity of microglial cells on the background of LPS treatment (rat microglial cells; 2.5 μg/ml): moderately strengthened
LPS-stimulated activity of NO synthase (synthesis of nitrites) in microglial cells (rat microglial cells; 10 μg/ml): decreased
ROS production stimulated by LPS in microglial cells (rat microglial cells; 20 and 5 μg/ml): significantly inhibited
spontaneous esterase-dependent oxidative metabolism (intracellular ROS) in microglial cells (rat microglial cells; 20 and 10 μg/ml): stimulated
number of phagocytic cells in the microglial population (rat microglial cells; all concentrations studied): without affecting
phagocytic activity of microglial cells (rat microglial cells; all concentrations studied): moderately increased
spontaneous esterase-dependent oxidative metabolism (intracellular ROS) in microglial cells (rat microglial cells; concentrations ≤5 μg/ml): no statistically significant effect
ROS production stimulated by LPS in microglial cells (rat microglial cells; other concentrations): did not have any effect
spontaneous arginase activity of nonsensitized microglial cells (rat microglial cells; [3]): virtually no effect
spontaneous nitric oxide production by nonsensitized microglial cells (rat microglial cells; [3]): reduced
water content of feces (Water content of feces): did not cause any significant changes
expression of nitric oxide synthase enzyme in astrocytes [2]: increase
